pEC50: −log10 of the molar value. Residues, ends and D or L forms follow the SMILES beside them.
Assays:
[1] = target: T1, murine receptor (FDC-P1/ER cells) (Mus musculus, UniProt P14753); assay: Peptide dependent growth of the EPO-responsive cell line FDC-P1/ER (thymidine incorporation); format: cell-based
T1 construct: expressed in transfected cells; host or cells: FDC-P1 (murine bone marrow derived cell line)
T1 sequence (P14753 25-507): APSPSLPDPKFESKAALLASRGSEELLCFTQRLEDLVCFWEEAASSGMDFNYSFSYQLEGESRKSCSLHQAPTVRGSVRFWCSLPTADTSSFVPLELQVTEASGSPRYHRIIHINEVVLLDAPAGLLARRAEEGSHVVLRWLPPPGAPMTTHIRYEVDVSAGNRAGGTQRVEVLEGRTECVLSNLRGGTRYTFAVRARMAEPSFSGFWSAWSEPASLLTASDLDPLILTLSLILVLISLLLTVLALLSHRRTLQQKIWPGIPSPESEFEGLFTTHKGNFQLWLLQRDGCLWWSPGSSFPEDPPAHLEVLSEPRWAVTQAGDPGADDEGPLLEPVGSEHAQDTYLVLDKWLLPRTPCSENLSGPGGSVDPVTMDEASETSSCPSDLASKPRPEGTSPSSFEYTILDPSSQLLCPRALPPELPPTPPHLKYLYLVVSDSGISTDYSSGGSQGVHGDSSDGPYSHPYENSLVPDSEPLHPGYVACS
Method: Sample Preparation: Peptides were resuspended in DMSO as a 1×10^-2 M stock solution and serially diluted in 10-fold increments to generate the following 100× solutions: [formula]
Two μl of each stock dilution was added to a cell well as described below in a total volume of 200 μl to generate final concentrations as follows: [formula]
(§3) Cells are counted and resuspended at a concentration of 800,000 cells/ml. Approximately forty thousand cells (50μ) are added to each well of a 96 well microtiter plate. Peptide is added to each well in triplicate. A standard dose response determination is run with each series of peptides. After a forty-two hr incubation (≈2 doubling), each well is pulsed with 1 μCi/well Thymidine. Cells are incubated an additional six hr at which time cells are harvested and counted to assess thymidine incorporation as an indicator of cell proliferation.

[2] = target: T2, truncated human erythropoietin receptor (Homo sapiens, UniProt P19235); assay: cell-based
T2 sequence (P19235 25-468 limits assumed): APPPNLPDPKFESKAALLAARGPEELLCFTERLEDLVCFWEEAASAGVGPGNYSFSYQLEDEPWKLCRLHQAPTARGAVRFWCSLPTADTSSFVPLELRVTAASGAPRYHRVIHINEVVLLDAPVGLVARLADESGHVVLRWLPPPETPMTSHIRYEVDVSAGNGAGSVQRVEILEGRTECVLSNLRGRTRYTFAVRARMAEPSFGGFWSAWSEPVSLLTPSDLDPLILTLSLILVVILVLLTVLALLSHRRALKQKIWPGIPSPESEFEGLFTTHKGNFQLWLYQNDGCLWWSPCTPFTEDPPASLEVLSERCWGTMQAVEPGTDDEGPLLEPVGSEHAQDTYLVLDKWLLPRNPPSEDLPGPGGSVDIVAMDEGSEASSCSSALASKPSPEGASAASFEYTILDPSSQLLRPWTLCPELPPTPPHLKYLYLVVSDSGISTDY
Method: as §3

[3] = target: T3, extracellular domain of the human erythropoietin receptor (EPO binding protein, EBP) (Homo sapiens, UniProt P19235); assay: Immobilized EBP based [125I]EPO competition binding assay; details: IC50 relative to RWJ61233 (IC50 of 5 μM)
T3 construct: made in house; host or cells: E. coli
T3 sequence (P19235 25-250 limits assumed): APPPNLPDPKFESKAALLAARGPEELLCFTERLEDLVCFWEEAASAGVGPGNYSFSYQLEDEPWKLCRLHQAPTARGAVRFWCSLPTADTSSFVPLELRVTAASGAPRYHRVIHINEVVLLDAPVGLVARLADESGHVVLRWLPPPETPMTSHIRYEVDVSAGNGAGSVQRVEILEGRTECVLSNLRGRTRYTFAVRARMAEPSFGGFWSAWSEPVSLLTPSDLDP
Method: The iodoacetyl activation chemistry of Sufolink beads (Pierce Chemical Co, Rockford, Ill.) is specific for free thiols and assures that the linkage is not easily reversible. EBP-Sulfolink beads were made as follows: SulfoLink gel suspension (10 ml) was mixed with coupling buffer (40 ml: 50 mM Tris, pH 8.3, 5 mM EDTA) and the gel was allowed to settle. The supernatant was removed and the EBP (0.3-1 mg/ml in coupling buffer) to be bound was added directly to the washed beads. The mixture was rocked gently for 30 minutes at room temperature, and the beads were allowed to settle for 1 hour at room temperature. […] The amount of EBP which was covalently bound to the beads was determined by comparing the OD280 of the original EBP solution to the total OD280 recovered in the reaction supernatant and the two 20 ml washes.
Binding assays were initiated by the addition of EBP beads (50 μl) to individual reaction tubes. […] The tubes were incubated for five hours (a time period experimentally determined as adequate for the establishment of equilibrium) at room temperature with gentle rocking. […]
Competitive binding analysis assays of candidate peptides were performed as outlined below. […] The columns containing the washed beads were placed in 12×75 mm glass tubes and bound radioactivity levels were determined using a gamma counter.

FDCP-1/muER cells = assay: Peptide-induced initiation of cell cycle measured by DNA content; format: cell-based, murine; details: 10 U/ml EPO, ten hours postinduction
Method: 1. Experimental Protocol: FDCP-1/muER cells were grown to stationery phase≈3.0×10^6 cells/ml. […] Three million cells were collected at the following time points: 0, 6, 8, 10, and 12 hr. (see, FIG. 15). Cells were washed twice in cold PBS and fixed by resuspending the cell pellet in 100 μl of cold PBS followed by 900 μl of cold 70% ethanol. Cells were stained with 50 μg/ml of propidium iodine and fluorescence was measured on FACS Scan Flow cytometer. The percentage of cells in each phase was measured using the SOBR model of CellFIT software, by Becton Dickinson.

murine bone marrow cells = assay: Colony assay, murine bone marrow; format: cell-based; details: EPO
Method: (§1) A ten milliliter sample of peripheral blood was obtained from a healthy individual in a standard sterile heparin vacutainer tube. Murine bone marrow was obtained from the femurs of approximately 10 mice per experiment. All reagents were obtained from Stem Cell Technologies Inc. (Vancouver, Canada).
(§2) a. Experimental Protocol: Briefly, a nucleated cell count was performed to establish the number and concentration of nucleated cells in the original sample. In the case of peripheral blood, the sample is subjected to centrifugation through a Ficoll-Hypaque (1.077 g per ml) gradient at 400 g for 30 minutes at room temperature. Mononuclear cells at the interface of the Ficoll-Hypaque solution are carefully removed and diluted to a total volume of about 10 ml. The cells obtained from murine bone marrow or human peripheral blood were collected by centrifugation and the supernatant was decanted. The pelleted cells were resuspended in fresh medium and subjected to collection as described above. The washed cells were diluted in Iscove's medium/2% fetal bovine serum to the following concentration for plating:
Cells were added to methyl cellulose per directions of the manufacturer. […] Equivalent cell numbers were plated in "Complete" methylcellulose medium to assess maximal colony formation. A control plate was run with each assay minus EPO and peptide to determine background colony formation. Colonies were scored after both 10 days and 18 days of incubation.

[4] = tested on: human peripheral blood mononuclear cells; assay: Colony assay, human peripheral blood; format: cell-based
Method: as §1, §2
Cells were added to methyl cellulose per directions of the manufacturer. […] Equivalent cell numbers were plated in "Complete" methylcellulose medium to assess maximal colony formation. A control plate was run with each assay minus EPO and peptide to determine background colony formation. […]

[5] = Table 14, 1/28/94 experiment, scored 2/10/94
[6] = Table 14, 1/28/94 experiment, scored 2/21/94
[7] = Table 15, 2/21/94 experiment, scored 3/1/94
[8] = Table 15, 2/21/94 experiment, scored 3/14/94
[9] = set up 2/10/94, scored 2/23/94, EPO 3U/ml
[10] = set up 2/10/94, scored 2/23/94, EPO (METHOCULT)
[11] = set up 2/10/94, scored 3/4/94, EPO 3U/ml
[12] = set up 2/10/94, scored 3/4/94, EPO (METHOCULT)

CC(C)C[C@@H]1NC(=O)[C@@H]2CCCN2C(=O)CNC(=O)[C@H](Cc2ccccc2)NC(=O)[C@H](Cc2c[nH]cn2)NC(=O)[C@@H](NC(=O)[C@H](CO)NC(=O)[C@@H](N)Cc2ccc(O)cc2)CSSC[C@@H](C(N)=O)NC(=O)[C@H](C(C)C)NC(=O)[C@H](Cc2c[nH]c3ccccc23)NC(=O)[C@H]([C@@H](C)O)NC1=O [RWJ 61477] (HELM PEPTIDE1{Y.S.C.H.F.G.P.L.T.W.V.C.[am]}$PEPTIDE1,PEPTIDE1,3:R3-12:R3$$$V2.0)
pEC50 [1]: 6.00

CC(C)C[C@@H]1NC(=O)[C@@H]2CCCN2C(=O)CNC(=O)[C@H](Cc2ccccc2)NC(=O)[C@H](Cc2c[nH]cn2)NC(=O)[C@@H](NC(=O)[C@H](CO)NC(=O)[C@H](Cc2ccc([N+](=O)[O-])cc2)NC(=O)[C@@H](NC(=O)CNC(=O)CN)[C@@H](C)O)CSSC[C@@H](C(=O)N[C@@H](CCCCN)C(=O)N2CCC[C@H]2C(=O)N[C@@H](CCC(N)=O)C(=O)NCC(=O)NCC(N)=O)NC(=O)[C@H](C(C)C)NC(=O)[C@H](Cc2c[nH]c3ccccc23)NC(=O)[C@H]([C@@H](C)O)NC1=O [RWJ 61894, GGTXSCHFGPLTWVCKPQGG] (HELM PEPTIDE1{G.G.T.[O=C([C@H](Cc1ccc([N+](=O)[O-])cc1)N[*:1])[*:2]].S.C.H.F.G.P.L.T.W.V.C.K.P.Q.G.G.[am]}$PEPTIDE1,PEPTIDE1,6:R3-15:R3$$$V2.0)
pEC50 [2]: 6.10

CC(C)C[C@@H]1NC(=O)[C@@H]2CCCN2C(=O)CNC(=O)[C@H](Cc2ccccc2)NC(=O)[C@H](Cc2c[nH]cn2)NC(=O)[C@@H](NC(=O)[C@H](CO)NC(=O)[C@H](Cc2ccc(N)cc2)NC(=O)[C@@H](NC(=O)CNC(=O)CN)[C@@H](C)O)CSSC[C@@H](C(=O)N[C@@H](CCCCN)C(=O)N2CCC[C@H]2C(=O)N[C@@H](CCC(N)=O)C(=O)NCC(=O)NCC(N)=O)NC(=O)[C@H](C(C)C)NC(=O)[C@H](Cc2c[nH]c3ccccc23)NC(=O)[C@H]([C@@H](C)O)NC1=O [RWJ 62019, GGTXSCHFGPLTWVCKPQGG] (HELM PEPTIDE1{G.G.T.[Nc1ccc(C[C@H](N[*:1])C(=O)[*:2])cc1].S.C.H.F.G.P.L.T.W.V.C.K.P.Q.G.G.[am]}$PEPTIDE1,PEPTIDE1,6:R3-15:R3$$$V2.0)
pEC50 [2]: 5.52

CC(=O)NCC(=O)NCC(=O)N[C@H](C(=O)N[C@@H](Cc1ccc(O)cc1)C(=O)N[C@@H](CO)C(=O)N[C@H]1CSSC[C@@H](C(=O)N[C@@H](CCCCN)C(=O)N2CCC[C@H]2C(=O)N[C@@H](CCC(N)=O)C(=O)NCC(=O)NCC(N)=O)NC(=O)[C@H](C(C)C)NC(=O)[C@H](Cc2c[nH]c3ccccc23)NC(=O)[C@H]([C@@H](C)O)NC(=O)[C@H](CC(C)C)NC(=O)[C@@H]2CCCN2C(=O)CNC(=O)[C@H](Cc2ccccc2)NC(=O)[C@H](Cc2c[nH]cn2)NC1=O)[C@@H](C)O [RWJ 62146] (HELM PEPTIDE1{[ac].G.G.T.Y.S.C.H.F.G.P.L.T.W.V.C.K.P.Q.G.G.[am]}$PEPTIDE1,PEPTIDE1,7:R3-16:R3$$$V2.0)
Relative Binding [3]: 4

EPO: Erythropoietin, a glycoprotein hormone with 165 amino acids; recombinant standard
cells in S phase (FDCP-1/muER cells): approximately 45%
BFU-E colony-forming cell numbers (murine bone marrow cells; [5]): 5
CFU-E colony-forming cell numbers (murine bone marrow cells; [5]): 23
CFU-GM colony-forming cell numbers (murine bone marrow cells; [5]): 3
BFU-E colony-forming cell numbers (murine bone marrow cells; [6]): 30
CFU-E colony-forming cell numbers (murine bone marrow cells; [6]): 0
CFU-GM colony-forming cell numbers (murine bone marrow cells; [6]): 3
BFU-E colony-forming cell numbers (murine bone marrow cells; [7]): 3
CFU-E colony-forming cell numbers (murine bone marrow cells; [7]): 3
CFU-GM colony-forming cell numbers (murine bone marrow cells; [7]): > 10
CFU-E colony-forming cell numbers (murine bone marrow cells; [8]): 0
CFU-GM colony-forming cell numbers (murine bone marrow cells; [8]): 26
MBFU-E colony-forming cell numbers (murine bone marrow cells; [8]): 0
PBFU-E colony-forming cell numbers (murine bone marrow cells; [8]): 10
CFU-E [4, 9]: 7
MBFU-E [4, 9]: 7
CFU-E [4, 10]: 11
MBFU-E [4, 10]: 25
CFU-E [4, 11]: 4
CFU-GM [4, 11]: 3
MBFU-E [4, 11]: 7
PBFU-E [4, 11]: 7
CFU-E [4, 12]: 1
CFU-GM [4, 12]: 9
MBFU-E [4, 12]: 11
PBFU-E [4, 12]: 13

RWJ 61721: sequence analog peptide shown only as a drawing in Table 19 (GGTYSEHFGPLTWVKKPQGG)
Relative Binding [3]: > 100
